Counter-ions that a name gives are not always drawn. Values belong to the compound of their own block, whether it stands above or below them.
Assays:
[1] = Fluorescence quantum yield; assay type: physicochemical; settings: physiological conditions; standard quinine sulfate (Φ = 0.55)
Description: The fluorescence quantum yield is defined as the ratio of the number of photons emitted to the number of photons absorbed, which is a key parameter in fluorescence spectroscopy that describes the efficiency of the fluorescence process. The fluorescence quantum yields (Φ) of HN-241 and HN-241 sulfate were measured using quinine sulfate in 50 mM aqueous H2SO4 (Φ = 0.55) as the standard, and calculated according to the following Equation (1). (1) Yu=Ys × Fu × As/Fs × Au
“A” represents the absorbance at the excitation wavelength, “F” denotes the integral fluorescence intensity, and the subscripts “s” and “u” refer to the standard and sample, respectively.

hSULT1A2 [2] = target: T1, hSULT1A2 (Homo sapiens, UniProt P50226); experiment: Enzymatic kinetics of hSULT1A2-catalyzed HN-241 4-O-sulfation; assay type: biochemical
T1 construct: 6-histidine tag (N); TEV site (N); made in house; host or cells: Escherichia coli BL21 (DE3), pET29a(+)
Description: (§1) The enzymatic kinetic parameters of hSULT1As-catalyzed HN-241 4-O-sulfation were measured by incubating increasing concentrations of HN-241 with each of the hSULT1As for a certain period. The fitting equations included Equation (2), the Michaelis–Menten equation, and Equation (3) for enzyme kinetics with substrate inhibition. Related kinetic parameters were fitted by GraphPad Prism 8.0 (San Diego, CA, USA). (2) V=Vmax × [S]/Km+[S] (3) V=Vmax × [S]/Km+[S](1+[S]/Ki)
(§2) [S] refers to the concentration of HN-241, Vmax is the maximum rate of hSULT1As-catalyzed HN-241 4-O-sulfation, Km is the substrate concentration at the half Vmax, and Ki represents the dissociation constant for the binding of the substrate to the inhibitory site.

hSULT1A3 [3] = target: T2, hSULT1A3 (Homo sapiens, UniProt P0DMM9); experiment: Enzymatic kinetics of hSULT1A3-catalyzed HN-241 4-O-sulfation; assay type: biochemical
T2 construct: 6-histidine tag (N); TEV site (N); made in house; host or cells: Escherichia coli BL21 (DE3), pET29a(+)
Description: as §1, §2

hSULT1As [4] = experiment: O-sulfation and spectroscopic changes with hSULT1As (statements for all isoforms together); assay type: biochemical, human; settings: substrate 10 μM, all tested hSULT1A isozymes
Description: (§3) The incubation system consisted of Tris-HCl buffer (pH 7.4, 50 mM), MgCl2 (5 mM), DTT (200 μM), recombinant hSULT1As (29 pmol), and each fluorophore or 4-HN derivative (10 μM). After pre-incubation at 37 °C for 3 min, the reaction was initiated by adding an excess of PAPS (200 μM). Following 1 h incubation, the reaction was terminated with the addition of an equal volume of ice-cold acetonitrile. After centrifugation at 20,000× g for 20 min at 4 °C, the supernatant was collected for HPLC analysis. The mobile phase consisted of 10 mM aqueous ammonium acetate (A) and acetonitrile (B) at a flow rate of 0.4 mL/min. Gradient elution was performed under the following conditions: 0–2.0 min, 5% B; 2.0–10.0 min, 5–95% B; 10.0−12.0 min, 95% B; 12.0–12.5 min, 95–5% B; and 12.5–15.0 min, 5% B.
The spectroscopic changes in these fluorophores following O-sulfation were investigated. The incubation system was the same as that used in Section 2.3. The emission spectra of eight fluorophores in the presence and absence of three hSULT1A isoforms were determined using BioTek Synergy H1.

hSULT1A1 [5] = target: T3, hSULT1A1 (Homo sapiens, UniProt P50225); experiment: Enzymatic kinetics of hSULT1A1-catalyzed HN-241 4-O-sulfation; assay type: biochemical
T3 construct: 6-histidine tag (N); TEV site (N); made in house; host or cells: Escherichia coli BL21 (DE3), pET29a(+)
Description: as §1, §2

hSULT1A2 [6] = target: T1, hSULT1A2; experiment: hSULT1As reaction phenotyping assay (HPLC), hSULT1A2; assay type: biochemical; settings: for Sulfation rate: peak area of the sulfated metabolite detected by HPLC, hSULT1A2: fluorophore 10 μM, PAPS 200 μM, 1 h, 37 °C
Description: as §3

hSULT1A1 [7] = target: T3, hSULT1A1; experiment: hSULT1As reaction phenotyping assay (HPLC), hSULT1A1; assay type: biochemical; settings: for Sulfation rate: peak area of the sulfated metabolite detected by HPLC, hSULT1A1: fluorophore 10 μM, PAPS 200 μM, 1 h, 37 °C
Description: as §3

hSULT1A2 [8] = target: T1, hSULT1A2; experiment: Fluorescence-based microplate inhibition assay, hSULT1A2-catalyzed HN-241 4-O-sulfation; assay type: biochemical; settings: 0.25 h; test compound 10 μM, HN-241 5 μM, 15 min; read-out: Residue activity (%) hSULT1A2
hSULT1A1 [9] = target: T3, hSULT1A1; experiment: Fluorescence-based microplate inhibition assay, hSULT1A1-catalyzed HN-241 4-O-sulfation; assay type: biochemical; settings: test compound 1 μM, HN-241 1 μM, 15 min; read-out: Residue activity (%) hSULT1A1;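 note: reaction started with 200 µM PAPS at 37 °C, fluorescence read continuously (Ex 350 nm, Em 450 nm), activity expressed relative to DMSO-only control without inhibitor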
hSULT1A3 [10] = target: T2, hSULT1A3; experiment: Fluorescence-based microplate inhibition assay, hSULT1A3-catalyzed HN-241 4-O-sulfation; assay type: biochemical; settings: test compound 10 μM, HN-241 10 μM, 15 min; read-out: Residue activity (%) hSULT1A3
hSULT1As [11] = test system: hSULT1As; parameters: method as in PMID 12264750, PMID 35713964, PMID 6786543; settings: ascorbic acid as competitive inhibitor of hSULT1As; ref [13],[14],[15]; cited from earlier work
hSULT1A3 [12] = target: T2, hSULT1A3; experiment: hSULT1As reaction phenotyping assay (HPLC), hSULT1A3; assay type: biochemical; settings: fluorophore 10 μM, PAPS 200 μM, 1 h, 37 °C
Description: as §3

T3 sequence (P50225 whole entry): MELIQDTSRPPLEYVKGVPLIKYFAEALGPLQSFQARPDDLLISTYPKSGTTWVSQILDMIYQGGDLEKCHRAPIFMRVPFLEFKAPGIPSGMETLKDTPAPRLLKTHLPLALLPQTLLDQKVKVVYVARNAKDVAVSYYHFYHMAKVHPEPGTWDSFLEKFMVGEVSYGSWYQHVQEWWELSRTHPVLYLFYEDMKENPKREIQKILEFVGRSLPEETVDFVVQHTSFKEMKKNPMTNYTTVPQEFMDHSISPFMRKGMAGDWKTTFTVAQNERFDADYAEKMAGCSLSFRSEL
T2 sequence (P0DMM9 whole entry): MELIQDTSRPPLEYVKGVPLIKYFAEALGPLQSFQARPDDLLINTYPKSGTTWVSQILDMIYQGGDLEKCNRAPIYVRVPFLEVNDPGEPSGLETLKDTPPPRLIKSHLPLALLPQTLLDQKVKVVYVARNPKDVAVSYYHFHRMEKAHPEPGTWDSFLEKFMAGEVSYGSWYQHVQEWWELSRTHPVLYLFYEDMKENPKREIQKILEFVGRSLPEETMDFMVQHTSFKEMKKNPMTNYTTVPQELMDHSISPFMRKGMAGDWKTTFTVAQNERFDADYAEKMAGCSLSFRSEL
T1 sequence (P50226 whole entry): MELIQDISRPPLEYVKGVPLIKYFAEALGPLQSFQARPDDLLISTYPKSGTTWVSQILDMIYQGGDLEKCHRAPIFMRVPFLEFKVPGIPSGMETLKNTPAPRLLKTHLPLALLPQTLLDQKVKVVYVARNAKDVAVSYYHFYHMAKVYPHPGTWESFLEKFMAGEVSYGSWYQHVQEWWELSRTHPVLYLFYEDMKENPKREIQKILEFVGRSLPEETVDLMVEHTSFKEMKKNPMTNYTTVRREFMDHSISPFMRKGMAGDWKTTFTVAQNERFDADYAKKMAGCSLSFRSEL

Fluorescence quantum yield (Φ) [1]: 0.86
Compound: CCN1C(=O)c2cccc3c(OS(=O)(=O)O)ccc(c23)C1=O [HN-241 sulfate]

Fluorescence quantum yield (Φ) [1]: 0.02 | Clint (hSULT1A2 [2]; hSULT1A2): 1440.94 μL/min/mg Protein | Vmax (hSULT1A2 [2]; hSULT1A2, Michaelis–Menten kinetics): 6441.00 pmol/min/mg Protein | Clint (hSULT1A3 [3]; hSULT1A3): 683.26 μL/min/mg Protein | Vmax (hSULT1A3 [3]; hSULT1A3, Michaelis–Menten kinetics): 8814.00 pmol/min/mg Protein | Clint (hSULT1A1 [5]; HN-241 4-O-sulfation): 24,265.93 μL/min/mg Protein | Ki (hSULT1A1 [5]; substrate inhibition constant of HN-241 (binding of substrate to the inhibitory site)): 1370 ± 400 nM
Compound: CCN1C(=O)c2cccc3c(O)ccc(c23)C1=O [HN-241, 4-hydroxy-N-ethyl-1,8-naphthalimide]
O-sulfation by hSULT1As (in words) (hSULT1As [4]): highest O-sulfation rate

Compound: CN(C)CCN1C(=O)c2cccc3c(O)ccc(c23)C1=O [HN-283]
O-sulfation by hSULT1As (in words) (hSULT1As [4]): very slow O-sulfation rates

Compound: O=C(O)CCCN1C(=O)c2cccc3c(O)ccc(c23)C1=O [HN-299]
O-sulfation by hSULT1As (in words) (hSULT1As [4]): very slow O-sulfation rates

Compound: O=C1c2cccc3c(O)ccc(c23)C(=O)N1CCc1ccccc1 [HN-317]
O-sulfation by hSULT1As (in words) (hSULT1As [4]): very slow O-sulfation rates

Compound: O=C1c2cccc3c(O)ccc(c23)C(=O)N1CCc1ccc(F)cc1 [HN-335]
O-sulfation by hSULT1As (in words) (hSULT1As [4]): very slow O-sulfation rates

O-sulfation in hSULT1A2 (in words) (hSULT1A2 [6]; 4-HN derivative 10 μM): scarcely metabolized | O-sulfation in hSULT1A1 (in words) (hSULT1A1 [7]; 4-HN derivative 10 μM): rapidly metabolized
Compound: Cc1ccc(NC(=O)CCCN2C(=O)c3cccc4c(O)ccc(c34)C2=O)cc1 [HN-388]

remaining activity at 10 µM (hSULT1A2 [8]): 113% | activity at 1 µM (hSULT1A1 [9]): 102% | activity at 10 µM (hSULT1A3 [10]): 108%
Compound: C/C1=C\CC(C)(C)/C=C/C(=O)/C(C)=C/CC1 [Zerumbone]

Compound: O=C1O[C@H]([C@@H](O)CO)C(O)=C1O [ascorbic acid]
Boost of the bioavailability of ethinylestradiol (hSULT1As [11]): approximately 50%

Compound: O=c1ccc2nc3ccc(O)cc3oc-2c1 [fluorophore A]
Sulfation rate: peak area of the sulfated metabolite detected by HPLC, hSULT1A2 (hSULT1A2 [6]): + (“+” shows the peak area of the sulfated metabolites of each fluorophore detected by HPLC, ranging from 0 to 10,000) | Sulfation rate: peak area of the sulfated metabolite detected by HPLC, hSULT1A1 (hSULT1A1 [7]): ++ (“++” and “+++” denote ranges from 10,000 to 50,000, and greater than 50,000, respectively)

Compound: CCCCN1C(=O)c2cccc3c(O)ccc(c23)C1=O [fluorophore B, 4-hydroxy-N-butyl-1,8-naphthalimide]
Sulfation rate: peak area of the sulfated metabolite detected by HPLC, hSULT1A2 (hSULT1A2 [6]): ++ (“++” and “+++” denote ranges from 10,000 to 50,000, and greater than 50,000, respectively) | Sulfation rate: peak area of the sulfated metabolite detected by HPLC, hSULT1A1 (hSULT1A1 [7]): ++ (“++” and “+++” denote ranges from 10,000 to 50,000, and greater than 50,000, respectively) | Sulfation rate: peak area of the sulfated metabolite detected by HPLC, hSULT1A3 (hSULT1A3 [12]): ++ (“++” and “+++” denote ranges from 10,000 to 50,000, and greater than 50,000, respectively)

Compound: CC1=[N+]2C(=C(c3ccc(O)cc3)c3ccc(C)n3[B-]2(F)F)C=C1 [fluorophore C]
O-sulfation by hSULT1As (in words) (hSULT1As [4]): could not be sulfated
